Measured values from patent US4613603A, “Compounds with a nitrogen-containing heterocyclic nucleus, and drugs in which they are present” (Sanofi, priority 1984, dated 1986).
Where a name gives a salt, the structure may show the parent alone. Read-outs that look alike come from different tables or passages of the source.

Legend:
[1] = Determination of the lethal dose in mice after acute administration; conditions: mouse, in vivo, po, administered orally, read-out: Percent toxicity (percentage of animals which die within 72 hours)
Procedure: The products were administered orally to groups of 5 female CDI Charles River mice weighing between 20 and 24 g. They were solubilized in 0.1N HCl. The toxicity was recorded for 72 hours following the administration of the products.
The results, expressed as the percentage of animals which die within 72 hours following oral administration of the products, are given in the table above.

[2] = tested on: contortional movements caused by the administration of acetic acid; experiment: Analgesic activity, KOSTER test (acetic acid contortions); type: in vivo; conditions: mice, 25 mg/kg administered orally 30 minutes before i.p. acetic acid
Procedure: The analgesic activity of the products according to the invention was evaluated using the KOSTER test (Federation Proceeding 18, 41 (1959)).
The products were administered orally to mice 30 minutes before the intraperitoneal injection of 0.25 ml of 0.1N acetic acid dissolved in 10% gum arabic. The contortions between the fifth and tenth minute and between the fifteenth and twentieth minute after administration of the acid were counted for the control animals and the treated animals.

[3] = tested on: bicuculline; experiment: Antagonism towards the convulsions and the mortality caused by bicuculline; type: in vivo, mice; conditions: Mus musculus, po, 1 h
Procedure: (§1) The anticonvulsant effect of the products on mice was evaluated on a model involving convulsions caused by an electric shock and on a model involving convulsions induced by a chemical agent: bicuculline.
The groups consisted of 10 CDI Charles River mice weighing between 20 and 22 g. The products were administered orally 60 minutes before the bicuculline (0.8 mg/kg, administered intravenously).

[4] = tested on: convulsions induced by an electric shock; experiment: Antagonism towards the convulsions induced by an electric shock; type: in vivo; conditions: Mus musculus, po, 1 h; mice, administered orally 60 minutes before the electric shock; confidence limits in brackets (p ≤ 0.05); read-out: Median effective dose (ED50) for antagonism towards electric shock
Procedure: as §1
The test was a slightly modified version of that of SWINYARD et al. [Journal of Pharmacology and Experimental Therapeutics 106, 319-330 (1952)] and ASAMI et al. [Arzneimittel Forschung 24(10), 1563-1568 (1974)]. The equipment consisted of a Racia shock generator fitted with 2 ocular electrodes delivering a current at 12.5 volts for 0.3 second. The groups consisted of 10 CDI Charles River mice weighing between 20 and 24 g.
The products were administered orally 60 minutes before the electric shock.

[5] = tested on: mortality following the injection of collagen; experiment: Antithrombotic activity, mortality following the injection of collagen; type: in vivo; conditions: mice, 200 mg/kg, administered orally
[6] = read-out: Median effective dose (ED50) for antagonism towards bicuculline, Mortality
[7] = read-out: Median effective dose (ED50) for antagonism towards bicuculline, Tonic convulsions

SMILES	mortality at 72 h ([1]; 250 mg/kg)	mortality at 72 h ([1]; 500 mg/kg)	mortality at 72 h ([1]; 1000 mg/kg)	Antagonism towards the contortional movements (percent/control animals) [2]	ED50 [3, 6]	ED50 [3, 7]	ED50 [4]	Protection from mortality following the injection of collagen [5]
OC1CCN(c2ccc(-c3ccccc3Cl)cn2)CC1 [SR 42 482, 5-(2-Chlorophenyl)-2-(4-hydroxypiperidino)-pyridine acid maleate]	0%	0%	0%	-50%				
OC1CCN(c2ncc(-c3ccccc3Cl)cn2)CC1 [SR 42 505, 5-(2-Chlorophenyl)-2-(4-hydroxypiperidino)pyrimidine]	0%	0%	80%	-36%	54 mg/kg	52 mg/kg	42 mg/kg	
OC1CCN(c2ncc(-c3ccccc3Cl)nn2)CC1 [SR 42 524, 6-(2-Chlorophenyl)-3-(4-hydroxypiperidino)-1,2,4-triazine]	0%	0%	0%		72 mg/kg	71 mg/kg	24 mg/kg	protected mice from mortality following the injection of collagen
O=C1CCN(c2ncc(-c3ccccc3Cl)nn2)CC1 [SR 42 642, 6-(2-Chlorophenyl)-3-(4-oxopiperidino)-1,2,4-triazine]	0%	0%					40 mg/kg	
O=C1CCN(c2ccc(-c3ccccc3Cl)cn2)CC1 [SR 42 696, 5-(2-Chlorophenyl)-2-(4-oxopiperidino)pyridine acid maleate]	0%	0%						
OC1CCN(c2ncc(-c3ccc(Cl)cc3Cl)cn2)CC1 [SR 42 824, 5-(2,4-dichlorophenyl)-2-(4-hydroxypiperidino)pyrimidine]	0%	0%		-80%	8 mg/kg	9.4 mg/kg	20 mg/kg	
OC1CCN(c2ncc(-c3ccc(Cl)cc3Cl)nn2)CC1 [SR 42 825, 6-(2,4-Dichlorophenyl)-3-(4-hydroxypiperidino)-1,2,4-triazine]	20%	20%	80%	-57%	3.3 mg/kg	3.1 mg/kg	16 mg/kg	
O=C1CCN(c2ncc(-c3ccc(Cl)cc3Cl)nn2)CC1 [SR 42 826, 6-(2,4-Dichlorophenyl)-3-(4-oxopiperidino)-1,2,4-triazine]	0%	20%		-42%	3.4 mg/kg	3.2 mg/kg	26 mg/kg	
OC1CCN(c2cnc(-c3ccc(Cl)cc3)nn2)CC1 [SR 42 833, 3-(4-Chlorophenyl)-6-(4-hydroxypiperidino)-1,2,4-triazine]	0%	0%		-31%				
OC1CCN(c2ccc(-c3ccc(Cl)cc3Cl)cn2)CC1 [SR 42 903, 5-(2,4-Dichlorophenyl)-2-(4-hydroxypiperidino)pyridine]							28 mg/kg	
OC1CCN(c2cnc(-c3cccc(Cl)c3)nn2)CC1 [SR 42 904, 3-(3-Chlorophenyl)-6-(4-hydroxypiperidino)-1,2,4-triazine]	0%	0%					59 mg/kg	
OC1CCN(c2ncc(-c3ccc(Cl)cc3)cn2)CC1 [SR 42 921, 5-(4-chlorophenyl)-2-(4-hydroxypiperidino)pyrimidine]	0%	0%						
OC1CCN(c2ncc(-c3cccc(Cl)c3)cn2)CC1 [SR 42 922, 5-(3-chlorophenyl)-2-(4-hydroxypiperidino)pyrimidine]	0%	0%	0%					
OC1CCN(c2ncc(-c3cccc4ccccc34)cn2)CC1 [SR 43 139, 5-(naphthyl-1)-2-(4-hydroxypiperidino)pyrimidine]	0%	0%	0%		44 mg/kg	46 mg/kg	43 mg/kg	
COc1ccc(-c2cnc(N3CCC(O)CC3)nc2)cc1 [SR 43 159, 5-(4-methoxyphenyl)-2-(4-hydroxypiperidino)pyrimidine]	0%	0%	0%		60 mg/kg	70 mg/kg	83 mg/kg	
O=C(OC1CCN(c2ncc(-c3ccccc3Cl)cn2)CC1)N1CCC(O)CC1 [SR 43 516, 2-[4-(4-hydroxypiperidinocarbonyloxy)piperidino]-5-(2-chlorophenyl)pyrimidine]	0%	0%	0%				91 mg/kg	
CN(C)C(=O)OC1CCN(c2ncc(-c3ccccc3Cl)cn2)CC1 [SR 43 537, 2-(4-dimethylcarbamoyloxypiperidino)-5-(2-chlorophenyl)pyrimidine]					3 mg/kg	3.3 mg/kg	2.5 mg/kg	
CN(C)C(=O)OC1CCN(c2ncc(-c3ccc(Cl)cc3Cl)cn2)CC1 [SR 43 539, 2-(4-Dimethylcarbamoyloxypiperidino)-5-(2,4-dichlorophenyl)pyrimidine]					0.7 mg/kg	1.1 mg/kg	2.5 mg/kg	
CNC(=O)OC1CCN(c2ncc(-c3ccccc3Cl)cn2)CC1 [SR 43 543, 2-(4-Methylcarbamoyloxypiperidino)-5-(2-chlorophenyl)pyrimidine]	0%	0%	20%		3.9 mg/kg	4.3 mg/kg	19 mg/kg	
CC(=O)OC1CCN(c2ncc(-c3ccc(Cl)cc3Cl)cn2)CC1 [SR 43 651, 2-(4-Acetoxypiperidino)-5-(2,4-dichlorophenyl)pyrimidine]					15.5 mg/kg	17.2 mg/kg	43 mg/kg	
